The text below walks through data of article PMC5831498 (Virus research, 2018).

Where two headings read alike, the source gives them in different places. Marks after values point to notes of the source that are not given here. Bridge positions count the residues as written; N and C are the ends. Square brackets hold non-standard residues; d marks the D form. Peptide text beside a SMILES is read from it. * marks the point of attachment. Ileψ(thiazoline)Cys = CC[C@H](C)[C@H](N)C1=N[C@H](C(=O)*)CS1; dOrn = NCCC[C@@H](N)C(=O)O

In series [1] the test system is Human influenza A virus (A/WS/33 [H1N1]). Put plainly: microbe, parasite or virus in culture. To be noted: for EC50: read-out: EC50 A/WS/33; for inhibition of replication of A/WS/33 (in words): MDCK cells; for SI for A/WS/33 (selectivity index): CC50/EC50, MDCK cells. The format is cell-based.
Series [2] concerns Swine influenza A virus (A/swine/OH/511445/2007 [H1N1], Oh7). Briefly: microbe, parasite or virus in culture. The format is cell-based. The note with it: read-out: EC50 A/swine/OH/2007.
The subject of series [3] is influenza B virus (B/Lee/40). Put plainly: Antiviral assay, virus titration by TCID50, MDCK cells. The series is classed as cell-based. To be noted: for EC50: Influenza B virus, MDCK, read-out: EC50 B/Lee/40; for inhibition of replication of B/Lee/40 (in words): MDCK cells.
Another series addresses PDI1 enzyme (Homo sapiens, UniProt P07237). Briefly: ProteoStat PDI assay. To be noted: for effect on PDI1 activity (in words): at 10 or 50 µM; for PDI1 activity relative to mock: mock = 100, SD in parentheses. The format is biochemical.
For the next series, the system named is Group A rotavirus SA11. Put plainly: Rotavirus replication in MA104 cells. The format is cell-based.
Series [4] can be described thus: Nonspecific cytotoxicity, CytoTox 96 assay. The format is cell-based, canine. To be noted: dog, MDCK cells.
A further series concerns A/WS/33. The series is classed as cell-based, influenza A virus.
The test system of a further series is MDCK cells. Briefly: Nonspecific cytotoxicity, CytoTox 96 assay. The note with it: 24 hr treatment, SD in parentheses. The format is cell-based, canine.
Where [5] appears, read: Influenza A virus, H1N1, MDCK, in Sus scrofa.

Sequence of PDI1 enzyme (P07237 18-508): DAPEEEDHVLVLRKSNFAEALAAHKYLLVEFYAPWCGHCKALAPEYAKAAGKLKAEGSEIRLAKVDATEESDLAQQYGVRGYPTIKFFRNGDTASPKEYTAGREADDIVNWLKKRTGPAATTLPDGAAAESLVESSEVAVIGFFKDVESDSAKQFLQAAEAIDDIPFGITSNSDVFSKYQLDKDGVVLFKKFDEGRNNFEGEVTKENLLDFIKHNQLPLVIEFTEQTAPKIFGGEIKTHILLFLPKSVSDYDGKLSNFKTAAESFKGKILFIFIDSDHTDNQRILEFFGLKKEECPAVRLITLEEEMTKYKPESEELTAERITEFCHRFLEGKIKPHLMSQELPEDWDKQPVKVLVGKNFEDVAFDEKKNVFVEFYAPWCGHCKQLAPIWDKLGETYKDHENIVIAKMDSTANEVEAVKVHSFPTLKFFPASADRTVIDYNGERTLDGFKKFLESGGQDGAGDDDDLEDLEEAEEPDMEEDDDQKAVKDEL

As for `COC1=C2C[C@@H](C)C[C@H](OC)[C@H](O)[C@@H](C)/C=C(\C)[C@H](OC(N)=O)[C@@H](OC)/C=C\C=C(/C)C(=O)NC(=CC1=O)C2=O` [GDA, geldanamycin], the EC50 in series [1] (Influenza A virus, H1N1, MDCK) is more than 10 µM; in series [2] (setting [5]), more than 10000 nM; in series [3] it was more than 10000 nM; with Group A rotavirus SA11 (Rotavirus A, MA104, read-out: EC50 rotavirus SA11 replication), less than 1000 nM. In addition, in series [1], the “inhibition of replication of A/WS/33 (in words)” value is listed as “did not show any inhibitory activity”. Besides, the “inhibition of replication of B/Lee/40 (in words)” value in series [3] was “did not show any inhibitory activity”. Also, the “effect on PDI1 activity (in words)” value on PDI1 enzyme is reported as “little effect”. The “PDI1 activity relative to mock” value is reported as 102 (5) % on PDI1 enzyme (compound at 10 µM) and 96 (2) % at PDI1 enzyme (compound at 50 µM).
As for `C/C1=C/[C@H](O)C(C)(C)CCC/C(C)=C/C[C@H]1OC(=O)c1ccc(O)cc1` [Juniferdin, juniferdin], the “SI for A/WS/33 (selectivity index)” value in series [1] is 8.8. The EC50 in series [1] (Influenza A virus, H1N1, MDCK) is 1.5 µM; in series [2] (setting [5]), 1800 nM; in series [3], 3100 nM. Also, half-maximal cytotoxicity in series [4] (CC50 at 24 h) was put at 13.2 µM. Also, the “PDI1 activity relative to mock” value on PDI1 enzyme (compound at 10 µM) was 41 (5) ^* %; on PDI1 enzyme (compound at 50 µM), 6 (4) ^* %. Also, the “reduction of viral proteins (NP or M1), Western blot” value in the series on A/WS/33 was “dose-dependent”.
On to PACMA31, for which, in series [1], the EC50 was 6.1 µM. Also, the cytotoxic concentration (CC50) with MDCK cells came out at 12.5 µM. In addition, the results for the “PDI1 activity relative to mock” value on PDI1 enzyme (compound at 10 µM) and at PDI1 enzyme (compound at 50 µM) were 91 (3) % and 71 (9) ^* %, respectively. Also, the “reduction of viral proteins (NP or M1), Western blot” value in the series on A/WS/33 is on record as “dose-dependent”.
As to `CC(C)(C)N([O])C(C)(C)C` [Di-tert-butyl nitroxide (DTBN), Di-tert-butyl nitroxide], the EC50 in series [1] worked out at 210 µM. Moreover, the half-maximal cytotoxic concentration (CC50) in the series with MDCK cells is more than 1000 µM. For the same compound, the “PDI1 activity relative to mock” value was 67 (6) ^* % at PDI1 enzyme (compound at 10 µM) and 25 (9) ^* % on PDI1 enzyme (compound at 50 µM).
In the case of `NC12CC3CC(CC(C3)C1)C2` [Amantidine, amantadine], the “SI for A/WS/33 (selectivity index)” value in series [1] was more than 83.3. For the same compound, the EC50 is 1.2 µM in series [1] (Influenza A virus, H1N1, MDCK); 1400 nM in series [2] (setting [5]); more than 100000 nM in series [3]. Besides, the “inhibition of replication of A/WS/33 (in words)” value in series [1] was “potently inhibited”. This compound also showed a CC50 at 24 h in series [4] of more than 100 µM. In addition, on PDI1 enzyme, the “effect on PDI1 activity (in words)” value was “little effect”. The “PDI1 activity relative to mock” value was 102 (5) % at PDI1 enzyme (compound at 10 µM) and 103 (4) % on PDI1 enzyme (compound at 50 µM).
As to `COC(=O)C1(C)c2[nH]c3ccccc3c2CCN1C(=O)CCl` (centres unmarked) [16F16], the figures for the EC50 in series [1] and in series [2] were 5.1 µM and 5800 nM, respectively. Also, the cytotoxic concentration (CC50) in the series with MDCK cells came to 15 µM. Besides, the “PDI1 activity relative to mock” value at PDI1 enzyme (compound at 10 µM) is on record as 89 (6) %; on PDI1 enzyme (compound at 50 µM), 59 (6) ^* %.
Take `O=c1c(O[C@@H]2O[C@H](CO)[C@@H](O)[C@H](O)[C@H]2O)c(-c2ccc(O)c(O)c2)oc2cc(O)cc(O)c12` [Isoquercetin (IQ), isoquercetin]: the “SI for A/WS/33 (selectivity index)” value in series [1] was found to be 90. Moreover, the EC50 stood at 0.5 µM in series [1] (Influenza A virus, H1N1, MDCK); 1200 nM in series [2] (setting [5]); 1200 nM in series [3]. In addition, in series [4], the half-maximal cytotoxic concentration (CC50) at 24 h is 45.5 µM. The results for the “PDI1 activity relative to mock” value on PDI1 enzyme (compound at 10 µM) and at PDI1 enzyme (compound at 50 µM) were 32 (5) ^* % and 13 (8) ^* %, respectively.
Regarding `CC[C@H](C)[C@H](N)C1=N[C@H](C(=O)N[C@@H](CC(C)C)C(=O)N[C@H](CCC(=O)O)C(=O)N[C@H](C(=O)N[C@H]2CCCCNC(=O)[C@H](CC(N)=O)NC(=O)[C@@H](CC(=O)O)NC(=O)[C@H](Cc3cnc[nH]3)NC(=O)[C@@H](Cc3ccccc3)NC(=O)[C@H]([C@@H](C)CC)NC(=O)[C@@H](CCCN)NC2=O)[C@@H](C)CC)CS1` [Bacitracin A, bacitracin A] ({Ileψ(thiazoline)Cys}-L[dE]IK[dOrn]I[dF]H[dD]N; lactam 4-C), the EC50 in series [1] (Influenza A virus, H1N1, MDCK) was more than 500 µM; in series [2] (setting [5]), more than 500000 nM; in series [3], more than 500000 nM. In addition, the “PDI1 activity relative to mock” value is recorded as 81 (3) ^* % on PDI1 enzyme (compound at 10 µM) and 53 (12) ^* % at PDI1 enzyme (compound at 50 µM).
Take “Epigallocatechin 3-gallate [Epigallocatechin 3-gallate (EGCG)]”: the EC50 in series [1] came out at 4.5 µM. The CC50 in the series with MDCK cells was found to be 35.4 µM. For the same compound, the results for the “PDI1 activity relative to mock” value at PDI1 enzyme (compound at 10 µM) and at PDI1 enzyme (compound at 50 µM) were 68 (7) ^* % and 28 (5) ^* %, respectively.
For `CC(=O)Oc1ccccc1C(=O)Nc1ncc([N+](=O)[O-])s1` [NTZ, nitazoxanide], the “SI for A/WS/33 (selectivity index)” value in series [1] is 16. The EC50 in series [1] (Influenza A virus, H1N1, MDCK) came out at 0.8 µM; in series [2] (setting [5]), 1300 nM; in series [3], 1500 nM. The compound further displayed a CC50 at 24 h in series [4] of 12.8 µM. The results for the “PDI1 activity relative to mock” value at PDI1 enzyme (compound at 10 µM) and on PDI1 enzyme (compound at 50 µM) were 81 (2) ^* % and 65 (4) ^* %, respectively.
Take `C=CCNC1=C2C[C@@H](C)C[C@H](OC)[C@H](O)[C@@H](C)/C=C(\C)[C@H](OC(N)=O)[C@@H](OC)/C=C\C=C(/C)C(=O)NC(=CC1=O)C2=O` [17-AAG, 17-N-Allylamino-17-demethoxygeldanamycin]: in series [1], the “inhibition of replication of A/WS/33 (in words)” value is “did not show any inhibitory activity” and the EC50 was more than 10 µM. For the same compound, the “inhibition of replication of B/Lee/40 (in words)” value in series [3] is “did not show any inhibitory activity”. Also, the EC50 in the series with Group A rotavirus SA11 (read-out: EC50 rotavirus SA11 replication, MA104 cells) was less than 1000 nM.
With `CCOC(=O)C1=C[C@@H](OC(CC)CC)[C@H](NC(C)=O)[C@@H](N)C1` [Oseltamivir, oseltamivir phosphate], the “SI for A/WS/33 (selectivity index)” value in series [1] is recorded as more than 660. In addition, the EC50 in series [1] (Influenza A virus, H1N1, MDCK) is 0.15 µM; in series [2] (setting [5]) it was 500 nM; in series [3], 1100 nM. Moreover, the “inhibition of replication of A/WS/33 (in words)” value in series [1] is recorded as “potently inhibited”. Also, the “inhibition of replication of B/Lee/40 (in words)” value in series [3] is given as “potently inhibited”. The CC50 at 24 h in series [4] is more than 100 µM. Further, on PDI1 enzyme, the “effect on PDI1 activity (in words)” value is “little effect”. In addition, the figures for the “PDI1 activity relative to mock” value on PDI1 enzyme (compound at 10 µM) and on PDI1 enzyme (compound at 50 µM) were 103 (6) % and 95 (5) %, respectively.

What is called CC50 is the concentration at which the toxic effect on the cells reaches its halfway point.
